Results taken from publication PMC9577195, “Pharmacokinetics, bioavailability, and plasma protein binding study of glytrexate, a novel multitarget antifolate” (Frontiers in Pharmacology, 2022).
Several values for one entry are separate records, joined by “and”; a condition that tells them apart may be missing. Identical values can stand only once. Like-named read-outs stand apart in the source and are kept apart here.

Assays:
[1] = Plasma protein binding rate by ultrafiltration, rat plasma; type: in vitro ADME
Description: The glytrexate stock solution was diluted with 20% methanol (1% formic acid) to three mass concentrations of 50, 100, and 200 μg/ml for use. One hundred microliters of glytrexate solution of the corresponding concentration (3 duplicates each in parallel) was added to 900 μl of rat/human plasma, vortexed and mixed well to prepare plasma samples with plasma concentrations of 5, 10, and 20 μg/ml.
The plasma sample was placed in a constant temperature water bath at 37°C for a certain period to obtain an incubation solution. After the incubation solution was removed, it was placed on ice to maintain a low temperature, transferred to a filtrate tube (500 μl), and placed in a low-temperature refrigerated centrifuge at 4°C and 14,000 rpm for 20 min to obtain filtrate.
The test tube containing the drug concentration was incubated in a constant temperature water bath at 37°C. Each sample was obtained at 10 min, 30 min, 60 min, 120 min, 240 min, and 360 min and the drug concentration before and after ultrafiltration was determined. The plasma protein binding rate (%) = [(Cincubation solution-CUltrafiltrate)/Cincubation solution]×100%. GraphPad Prism 8 software was used to perform a one-way analysis of variance on the plasma protein binding rate of glytrexate between different mass concentrations in the same species.

[2] = Pharmacokinetics and bioavailability in rats after single oral and intravenous doses; type: in vivo, Sprague-Dawley rats; conditions: rat; for AUC(0-inf) / Cmax / half-life / AUC / MRT last / bioavailability / CL/F / Tmax: male, Sprague-Dawley, plasma; for AUC: read-out: AUC0-tn; for MRT last: read-out: MRT0-t; for CL/F / Tmax: po
Description: Pharmacokinetic and bioavailability studies were carried out in twenty-four male Sprague–Dawley rats. The rats were randomly divided into four groups (n = 6). All of them were fasted for 12 h before administration and were allowed to drink freely. Approximately 300 μl of blood was collected from the posterior canthus venous plexus of each rat into heparinized tubes at 0.1, 0.16, 0.25, 0.5, 1, 2, 4, 8, 12, and 24 h after a single oral administration (i.g.) (12.5, 25, and 50 mg/kg) or at 0.03 h, 0.08, 0.25, 0.5, 1, 2, 4, 6, 8, 12, and 24 h after a single i.v. injection (2 mg/kg). The blood samples were processed to obtain the plasma via centrifugation at 3500 rpm for 10 min and then stored at −80°C until LC–MS/MS analysis.
The plasma samples obtained were processed using the method described in Section 2.4 and then analyzed using the established LC–MS/MS method. The data were processed using MultiQuant 3.0 software. According to the results of the blood drug concentration measurement in rats, the noncompartmental model in DAS 3.2.8 software was used to calculate the corresponding pharmacokinetic parameters, including peak time (Tmax), elimination half-life (T1/2), area under the drug-time curve (AUC0-t, AUC0-∞), maximum plasma concentration (Cmax), apparent volume of distribution (Vz/F), clearance rate (Clz/F), and average residence time (MRT0-t). GraphPad Prism 8 software was used to construct the trend chart of the changes in various parameters in plasma samples based on the measurements to analyze the possible pharmacokinetic characteristics of glytrexate.
If glytrexate has linear kinetic characteristics, the absolute bioavailability can be calculated according to the bioavailability formula, Fabs=(AUCT·Div)/(AUCiv·DT) × 100%, where AUC represents the area under the plasma concentration-time curve. The subscripts T and iv represent oral and intravenous injection, respectively, and D represents the administered dose. The data obtained in the study are expressed as the mean values plus or minus the standard deviation.

- fraction unbound at 30 min, 5 μg/ml ([1]; 5 μg/ml, 37°C, 30 min incubation, ultrafiltration): 0.863
- fraction unbound at 30 min, 10 μg/ml ([1]; 10 μg/ml, 37°C, 30 min incubation, ultrafiltration): 0.813
- fraction unbound at 30 min, 20 μg/ml ([1]; 20 μg/ml, 37°C, 30 min incubation, ultrafiltration): 0.947
- fraction unbound at 30 min ([1]; over 5, 10 and 20 μg/ml): > 0.7
- AUC(0-inf) ([2]; intravenous 2 mg/kg): 10200 ± 1710 ng·h/mL
- Cmax ([2]; intravenous 2 mg/kg): 17600 ± 767 ng/mL
- half-life ([2]; intravenous 2 mg/kg): 167 ± 15.6 min
- AUC ([2]; intravenous 2 mg/kg): 10200 ± 1710 ng·h/mL
- MRT last ([2]; intravenous 2 mg/kg): 0.91 ± 0.05 h
- AUC(0-inf) ([2]; oral 12.5 mg/kg): 370 ± 26 ng·h/mL
- Cmax ([2]; oral 12.5 mg/kg): 107 ± 12.1 ng/mL
- half-life ([2]; oral 12.5 mg/kg): 129 ± 9.6 min
- bioavailability ([2]; oral 12.5 mg/kg vs intravenous 2 mg/kg, read-out: F (bioavailability)): 0.57 ± 0.08%
- AUC ([2]; oral 12.5 mg/kg): 362 ± 24.6 ng·h/mL
- MRT last ([2]; oral 12.5 mg/kg): 3.12 ± 0.14 h
- AUC(0-inf) ([2]; oral 25 mg/kg): 750 ± 30.2 ng·h/mL
- Cmax ([2]; oral 25 mg/kg): 496 ± 19.8 ng/mL
- half-life ([2]; oral 25 mg/kg): 135 ± 5.58 min
- bioavailability ([2]; oral 25 mg/kg vs intravenous 2 mg/kg, read-out: F (bioavailability)): 0.59 ± 0.06%
- AUC ([2]; oral 25 mg/kg): 750 ± 30.2 ng·h/mL
- MRT last ([2]; oral 25 mg/kg): 2.95 ± 0.16 h
- AUC(0-inf) ([2]; oral 50 mg/kg): 2960 ± 190 ng·h/mL
- Cmax ([2]; oral 50 mg/kg): 1290 ± 109 ng/mL
- half-life ([2]; oral 50 mg/kg): 160 ± 9 min
- bioavailability ([2]; oral 50 mg/kg vs intravenous 2 mg/kg, read-out: F (bioavailability)): 1.15 ± 0.07%
- AUC ([2]; oral 50 mg/kg): 2960 ± 189 ng·h/mL
- MRT last ([2]; oral 50 mg/kg): 3.16 ± 0.096 h
- bioavailability ([2]; oral dose range 12.5–50 mg/kg, read-out: oral bioavailability): 0.57 to 1.15%
- CL/F ([2]; 12.5 mg/kg, oral 12.5 mg/kg): 565 mL/min/kg
- Tmax ([2]; 12.5 mg/kg, oral 12.5 mg/kg, read-out: Tmax): 30 min
- CL/F ([2]; 25 mg/kg, oral 25 mg/kg): 556 mL/min/kg
- Tmax ([2]; 25 mg/kg, oral 25 mg/kg, read-out: Tmax): 30 min
- CL/F ([2]; 50 mg/kg, oral 50 mg/kg): 282 mL/min/kg
- Tmax ([2]; 50 mg/kg, oral 50 mg/kg, read-out: Tmax): 30 min
- Tmax ([2]; 50 mg/kg, single oral administration 12.5, 25 and 50 mg/kg, read-out: Tmax (time of peak blood concentration)): 30 min
- intravenous AUC of glytrexate relative to pemetrexed ([2]; glytrexate 2 mg/kg vs pemetrexed 10 mg/kg): approximately 1.63 fold
- intravenous T1/2 of glytrexate relative to pemetrexed ([2]; intravenous): approximately 5 fold
- Cl/F ([2]; intravenous 2 mg/kg): 0.20 ± 0.03 L/h/kg
- V/F ([2]; intravenous 2 mg/kg): 0.80 ± 0.15 L/kg
- Cl/F ([2]; oral 12.5 mg/kg, 12.5 mg/kg): 33.89 ± 2.57 L/h/kg
- Cl/F ([2]; oral 25 mg/kg, 25 mg/kg): 33.37 ± 1.32 L/h/kg
- time of highest plasma concentration ([2]; single i.v. injection 2 mg/kg): 0.03 h
SMILES: Nc1nc2[nH]c(CC(=O)NCC(=O)N[C@@H](CCC(=O)O)C(=O)O)cc2c(=O)[nH]1 [glytrexate, (S)-2-{2-[2-(2-amino-4-oxo-4,7-dihydro-3H-pyrrolo [2,3-d]pyrimidin-6-yl)-acetylamino]-acetylamino}-pentanedioic acid]
- V/F ([2]; oral 12.5 mg/kg, 12.5 mg/kg): 104.724 ± 6.709 L/kg and 104.72 ± 6.71 L/kg
- V/F ([2]; oral 25 mg/kg, 25 mg/kg): 108.42 ± 7.698 L/kg and 108.42 ± 7.70 L/kg
- V/F ([2]; oral 50 mg/kg, 50 mg/kg): 64.832 ± 4.529 L/kg and 64.83 ± 4.53 L/kg
